Consider 2 compounds from patent publication US9877978B2, “Compositions comprising NDGA derivatives and sorafenib and their use in treatment of cancer” (THE JOHNS HOPKINS UNIVERSITY, priority 2012, dated 2018).

Each structure is given as a SMILES string. Like-named read-outs stand apart in the source and are kept apart here.

For one data set, the system named is HepG2 human HCC cells. Kind of data set: MTT cytotoxicity assay with median-effect / combination index analysis. In kind it is cell-based. The conditions noted are these: for DRI value at ED75 / DRI value at ED90 / DRI value at ED95: single agent vs combination; for IC50: Homo sapiens. How it is done: Cytotoxicity assay. […] M4N was used at concentrations between 0 and 80 μM. For the combination of M4N and sorafenib a constant molar ratio of 2:1 (M4N:sorafenib) was used. Twenty four hours after drug addition, cytotoxicity was assessed with the MTT assay with […] measured with a Power Wave 200 microplate reader.
Evaluation of drug interactions. The combination index (CI) isobologram method of Chou and Talalay, which is based on the median-effect principle, was used to calculate synergism or antagonism for the combined drug effects. Dose-effect curves for the two drugs, singly and in combination, in serially diluted concentrations were plotted using the median-effect equation and plot and the CI equation and plot. CI values at different effect and dose levels and isobolograms were generated automatically using the computer software CompuSyn. With this method, additive, synergistic, or antagonistic effects are indicated by CI values of 1, <1, and >1, respectively. Comparison of the ratio of doses required to reach a given effect level for each single drug and the drugs in combination was used to determine the dose-reduction.
(In general: Formazan colour is commonly taken as a measure of viable cells.)

For data set [1], the system named is caspase activation (procaspases 9, 4 and 7, caspase 3) in AsPc-1 human pancreatic carcinoma cells. The experiment in a line: Western immunoblot analysis of caspase activation. In kind it is cell-based. Conditions: for caspase activation (procaspase cleavage): 80 μM M4N, 40 μM sorafenib (FIG. 17); for caspase 3 activation: after 18 h of treatment. How it is done:
Western immunoblot analysis. Treated and control cells were washed with PBS and suspended in RIPA buffer (150 mM NaCl, 50 mM Tris-HCL (pH8.0), 0.1% SDS, 1% NP40, and 0.5% deoxycholate) supplemented with protease inhibitor cocktail. After a 20 min incubation on ice, the suspension was centrifuged to clear the solubilized proteins. Bradford protein assay were performed and samples containing equivalent amounts of protein were resolved by standard SDS-polyacrylamide gel electrophoresis and transferred to nirocellulose membrane. The membranes were blocked with skim milk, and incubated with primary antibodies at 4° C. overnight and then with secondary antibody conjugated with horse radish peroxidase at room temperature for 1 h. The signals were detected by western blot chemiluminescence detection reagent.
(In western blotting, separated proteins are transferred to a membrane and probed.)

[2] abbreviates: HepG2, concurrent administration of M4N.

For the compound `COc1ccc(C[C@@H](C)[C@@H](C)Cc2ccc(OC)c(OC)c2)cc1OC` [M4N, tetra-O-methyl nordihydroguaiaretic acid], in the data set with HepG2 human HCC cells (HepG2, 24 h), the “DRI value at ED75” value was found to be 3.15, the “DRI value at ED90” value was 1.75 and the “DRI value at ED95” value amounted to 1.17. Also, the IC50 with HepG2 human HCC cells (HepG2, 24-Hour Treatment, combination at constant molar ratio 2:1 (M4N:sorafenib), read-out: Dm, median effect dose (concentration that inhibits cell growth by 50%)) stood at 283 µM. For the same compound, in data set [1], the “caspase activation (procaspase cleavage)” value is given as “little effect on caspase activation” and the “caspase 3 activation” value is “neither drug nor their combination had an effect”.
On to `CNC(=O)c1cc(Oc2ccc(NC(=O)Nc3ccc(Cl)c(C(F)(F)F)c3)cc2)ccn1` [sorafenib], for which, in the data set on HepG2 human HCC cells (HepG2, 24 h), the “DRI value at ED75” value stood at 92815.6, the “DRI value at ED90” value is on record as 489945.0 and the “DRI value at ED95” value stood at 1519041. For the same compound, in the data set with HepG2 human HCC cells (setting [2]), the “DRI: decrease of concentration necessary to inhibit growth of 50% of cells (ED50)” value was 17,583.1 fold, the “DRI: decrease of concentration necessary to inhibit growth of 75% of cells (ED75)” value is on record as 92,815.6 fold and the “DRI: decrease of concentration necessary to inhibit growth of 95% of cells (ED95)” value is 151,9041 fold. Further, in the data set with HepG2 human HCC cells (HepG2, after 24 h of treatment (FIG. 4), read-out: IC50 against HepG2 cells), the IC50 is about 30 µM. The cytotoxic effect in the data set on HepG2 human HCC cells (sorafenib 20 μM alone, HepG2, 24 h) is about 20%. Moreover, in data set [1], the “caspase activation (procaspase cleavage)” value is “decreased levels of procaspases 9, 4 and 7”; the “caspase 3 activation” value is listed as “neither drug nor their combination had an effect”.
